Source: ChEMBL document CHEMBL4052711, “Synthesis of 4- and 5-arylthiazolinethiones as inhibitors of indoleamine 2,3-dioxygenase” (Bioorg Med Chem Lett, 2017)

Experiments:
[1] = biological target: T1, Indoleamine 2,3-dioxygenase 1 (Homo sapiens, UniProt P14902); assay: Inhibition of human IDO1 at 100 uM pre-incubated for 10 mins before L-Trp as substrate addition and measured after 30 mins by colorimetry
Target sequence in this assay (P14902 whole entry, looked up): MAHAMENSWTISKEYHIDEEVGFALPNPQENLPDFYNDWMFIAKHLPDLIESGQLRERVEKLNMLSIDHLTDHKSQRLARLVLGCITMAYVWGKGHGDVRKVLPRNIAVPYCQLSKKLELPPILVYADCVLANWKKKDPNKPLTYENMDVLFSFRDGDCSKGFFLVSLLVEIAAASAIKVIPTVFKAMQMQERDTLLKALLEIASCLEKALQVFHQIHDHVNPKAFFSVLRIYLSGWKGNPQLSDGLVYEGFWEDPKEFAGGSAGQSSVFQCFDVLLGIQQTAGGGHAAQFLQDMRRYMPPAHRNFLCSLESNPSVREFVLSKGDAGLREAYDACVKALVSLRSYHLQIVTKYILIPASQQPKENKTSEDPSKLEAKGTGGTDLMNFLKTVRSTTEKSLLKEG

[2] = biological target: T1, Indoleamine 2,3-dioxygenase 1; assay: Inhibition of human IDO1 pre-incubated for 10 mins before L-Trp as substrate addition and measured after 30 mins by colorimetry
Target sequence in this assay (P14902 whole entry): as the sequence (P14902 whole entry, looked up) above

[3] = biological target: T1, Indoleamine 2,3-dioxygenase 1; assay: Inhibition of human IDO1 at 10 uM pre-incubated for 10 mins before L-Trp as substrate addition and measured after 30 mins by colorimetry
Target sequence in this assay (P14902 whole entry, looked up): as above

Row | SMILES | inhibition [1] | other results
1 | Fc1ccccc1-c1c[nH]c(=S)s1 | 29% | –
2 | Clc1nc(-c2ccccc2)cs1 | 0.5% | –
3 | Nc1nc(-c2ccccc2)cs1 | 13% | –
4 | Fc1cccc(-c2csc(=S)[nH]2)c1 | 28% | –
5 | Brc1nc(-c2ccccc2)cs1 | 12% | –
6 | S=c1[nH]c(-c2cccc(Cl)c2)cs1 | 40% | –
7 | Oc1nc(-c2ccccc2)cs1 | 15% | –
8 | S=c1[nH]cc(-c2cccc(Br)c2)s1 | 48% | –
9 | COc1ccc(-c2csc(=S)[nH]2)cc1 | 68% | –
10 | OCc1cccc(-c2csc(=S)[nH]2)c1 | 16% | –
11 | S=c1[nH]c(-c2ccncc2)cs1 | 21% | –
12 | Sc1nc(-c2ccc(Cl)cc2)cs1 | 95% | IC50 ([2]; read-out: IC50): 2.6 µM; IC50 ([2]; read-out: pIC50 (converted)): 2.86 µM; inhibition [3]: 79%
13 | Fc1ccccc1-c1csc(=S)[nH]1 | 77% | –
14 | S=c1[nH]c(-c2cccc(Br)c2)cs1 | 81% | –
15 | FC(F)(F)c1ccc(-c2csc(=S)[nH]2)cc1 | 37% | –
16 | Sc1nc(-c2ccccc2)cs1 | 76% | inhibition [3]: 35%

Second part, led by results:

Row | inhibition [1] | SMILES | other results
17 | 8% | N#Cc1ccc(-c2csc(=S)[nH]2)cc1 | –
18 | 8% | O=C(O)c1ccccc1-c1csc(=S)[nH]1 | –
19 | 16% | S=c1[nH]cc(-c2ccccc2)s1 | –
20 | 100% | S=c1[nH]c(-c2ccc(Br)cc2)cs1 | IC50 ([2]; read-out: IC50): 3.4 µM; inhibition [3]: 88%
21 | 53% | COc1ccccc1-c1csc(=S)[nH]1 | –
22 | 90% | Cc1ccc(-c2csc(S)n2)cc1 | IC50 ([2]; read-out: IC50): 5.9 µM; inhibition [3]: 39%
23 | 15% | Cc1ccc(-c2c[nH]c(=S)s2)cc1 | –
24 | 48% | S=c1[nH]c(-c2cccnc2)cs1 | –
25 | 72% | Fc1ccc(-c2csc(S)n2)cc1 | –
26 | 0% | COc1ccc(-c2c[nH]c(=S)s2)cc1 | –
27 | 12% | COc1ccccc1-c1c[nH]c(=S)s1 | –
